19 compounds from patent US7799775B2, “Pyrimidine derivatives” (ASKA Pharmaceutical Co., Ltd., priority 2004, dated 2010) can be followed below.

Where a name gives a salt, the structure may show the parent alone.

Test [1] addresses T1, 5-HT1A receptor (Rattus norvegicus, UniProt P19327).
T1 construct: from tissue; host or cells: whole animal (SD male rats), behavioural read-out
T1 sequence (P19327 1-422): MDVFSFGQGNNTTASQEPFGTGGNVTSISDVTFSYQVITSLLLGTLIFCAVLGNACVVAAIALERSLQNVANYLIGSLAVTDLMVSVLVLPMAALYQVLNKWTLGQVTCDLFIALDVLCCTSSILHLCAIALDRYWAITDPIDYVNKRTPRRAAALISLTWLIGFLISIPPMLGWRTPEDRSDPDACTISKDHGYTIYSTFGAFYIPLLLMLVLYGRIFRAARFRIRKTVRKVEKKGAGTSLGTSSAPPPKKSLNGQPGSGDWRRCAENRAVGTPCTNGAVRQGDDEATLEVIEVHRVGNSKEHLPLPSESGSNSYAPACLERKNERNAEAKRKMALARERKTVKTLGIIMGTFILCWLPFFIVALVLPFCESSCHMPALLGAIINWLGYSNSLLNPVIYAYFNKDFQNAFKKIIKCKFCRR
Description: Measurement of 5-HT1A receptor agonistic action on rats (in vivo): lower lip retraction and flat body posture. Conditions: SD male rats, 10 mg/kg intraperitoneal; maximum of group evaluation points, 4 grades 0-3, observed 5-30 min after administration. The method, then: (3) Measurement of 5-HT1A Receptor Agonistic Action on Rats (in Vivo):
Seven weeks old SD male rats were divided into 4-5 rats per group which were accustomized to the experimental environments twice. A week after the second accustomization, the rats were put into a transparent plastic case, and 10 mg/kg of a test compound (as dissolved in 1N-hydrochloric acid and diluted with suitable amount of saline) was intraperitoneally administered thereto. Immediately before the administration and 5, 10, 20 and 30 minutes after the administration, behaviors of the rats were observed as to lower lip retraction (LLP) and flat body posture (FBP). The results were evaluated in 4 grades (0: no reaction, 1: feeble reaction, 2: medium reaction, 3: maximum reaction).

The target of test [2] is T2, 5-HT3 receptor (Rattus norvegicus, UniProt P35563).
T2 construct: from tissue; host or cells: whole animal (SD male rats), serotonin-induced bradycardia
T2 sequence (P35563 24-483): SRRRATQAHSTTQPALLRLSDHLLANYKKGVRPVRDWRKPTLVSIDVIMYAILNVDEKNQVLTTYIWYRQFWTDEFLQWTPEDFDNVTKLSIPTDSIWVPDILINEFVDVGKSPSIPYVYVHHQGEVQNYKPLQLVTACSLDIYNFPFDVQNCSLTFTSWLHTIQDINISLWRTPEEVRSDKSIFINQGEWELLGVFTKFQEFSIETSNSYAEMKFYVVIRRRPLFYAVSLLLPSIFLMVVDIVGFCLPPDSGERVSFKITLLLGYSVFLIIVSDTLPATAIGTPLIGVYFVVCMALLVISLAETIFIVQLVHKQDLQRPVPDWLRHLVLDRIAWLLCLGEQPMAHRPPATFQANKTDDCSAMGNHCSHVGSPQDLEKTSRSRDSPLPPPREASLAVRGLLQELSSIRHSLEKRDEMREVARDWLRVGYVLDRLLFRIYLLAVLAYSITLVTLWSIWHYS
In words: Measurement of 5-HT3 receptor antagonistic action on rats (in vivo): inhibition of serotonin-induced bradycardia (BJ reflex). Conditions: anesthetized SD male rats, dose 1.0 mg/kg intravenous, serotonin 300 μg/kg 10 minutes later. The procedure: (4) Measurement of 5-HT3 Receptor Antagonistic Action on Rats (in Vivo)
SD male rats (weighing 270-410 g) were anesthetized by peritoneal administration of 1.25 g/kg of urethane (as dissolved in distilled water), and then catheters for measuring blood pressure and heart rate were inserted into their left carotid artery and a catheter for administration of test compound was inserted into their […]. After their blood pressure and heart rate were stabilized, 300 μg/kg of 5-hydroxytryptamine creatinine sulfate (serotonin) was rapidly intravenously administered and thereby induced transient bradycardiac reaction (BC 1) was observed. When the blood pressure and heart rate were re-stabilized after the serotonic administration, the test compounds were intravenously administered to the rats. Ten minutes thereafter, 300 μg/kg of serotonin was once again rapidly intravenously administered and thereby induced transient bradycardiac reaction (BC 2) was observed. Percent inhibition of bradycardia manifestation of each test compound, i.e., BJ reflex inhibition, can be calculated according to the following expression: […]

In test [3] the target is T3, human 5-HT3 receptor (Homo sapiens, UniProt P46098).
T3 construct: purchased BIOLINKS K.K; host or cells: HEK-293 cells (membrane preparation)
T3 sequence (P46098 24-478): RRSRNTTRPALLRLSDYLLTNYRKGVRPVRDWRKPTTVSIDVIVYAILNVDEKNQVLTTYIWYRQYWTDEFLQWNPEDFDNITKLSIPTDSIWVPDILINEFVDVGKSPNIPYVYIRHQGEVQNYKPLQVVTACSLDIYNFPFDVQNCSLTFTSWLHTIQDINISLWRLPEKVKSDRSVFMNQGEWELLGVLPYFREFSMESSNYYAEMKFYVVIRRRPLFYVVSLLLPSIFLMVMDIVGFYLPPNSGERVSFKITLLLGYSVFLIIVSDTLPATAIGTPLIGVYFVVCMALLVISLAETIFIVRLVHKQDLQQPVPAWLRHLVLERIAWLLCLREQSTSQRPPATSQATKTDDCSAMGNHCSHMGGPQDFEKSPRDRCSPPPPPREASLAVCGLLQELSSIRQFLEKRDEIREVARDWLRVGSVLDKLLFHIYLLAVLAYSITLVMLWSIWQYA
In words: Measurement of affinity to human 5-HT3 receptor (in vitro), [3H]BRL-43694 binding. The settings on record: test compound 100 nmols/L; [3H]BRL-43694 0.5 nmols/L; HEK-293 cell membrane expressing human 5-HT3 receptor; read-out: Percent Inhibition (%) on Each Receptor's Binding at 10^−7M, 5-HT3. The method in brief: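 Membranes from HEK-293 cells expressing the receptor were incubated with 0.5 nmol/L radioligand and compound for 60 min at 25 °C in Tris/MgCl2/EDTA buffer, pH 7.5. Bound radioactivity was collected by filtration and counted. Percent inhibition was corrected for non-specific binding defined with 10 μmol/L tropisetron; compounds were tested at 100 nmol/L.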

Test [4] addresses T4, human 5-HT1A receptor (Homo sapiens, UniProt P08908).
T4 construct: purchased Packard Bioscience; host or cells: CHO cells (membrane preparation)
T4 sequence (P08908 1-422): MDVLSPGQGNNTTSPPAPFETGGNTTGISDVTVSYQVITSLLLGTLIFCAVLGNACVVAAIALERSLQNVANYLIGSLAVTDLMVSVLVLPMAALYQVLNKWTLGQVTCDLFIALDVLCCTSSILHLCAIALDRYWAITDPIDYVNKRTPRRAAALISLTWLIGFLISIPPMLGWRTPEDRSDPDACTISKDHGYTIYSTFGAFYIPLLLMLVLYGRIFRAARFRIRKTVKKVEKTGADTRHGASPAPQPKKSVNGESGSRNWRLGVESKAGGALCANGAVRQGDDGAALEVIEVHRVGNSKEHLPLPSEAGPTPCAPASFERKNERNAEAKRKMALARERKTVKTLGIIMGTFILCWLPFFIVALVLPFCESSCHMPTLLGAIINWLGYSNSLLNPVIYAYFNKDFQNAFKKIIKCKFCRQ
In words: Affinity measurement of the compounds to human 5-HT1A receptor (in vitro), [3H]8-OH-DPAT binding. The settings on record: test compound 100 nmols/L; [3H]8-OH-DPAT 0.25 nmols/L; CHO cell membrane expressing human 5-HT1A receptor; read-out: Percent Inhibition (%) on Each Receptor's Binding at 10^−7M, 5-HT1A. The method in brief: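 Membranes from CHO cells expressing human 5-HT1A were incubated 60 min at 27 °C with 0.25 nmol/L [3H]8-OH-DPAT and compound in Tris/MgSO4/EDTA/ascorbate buffer, pH 7.4. Bound radioactivity was collected on PEI-soaked GF/C filters and counted; percent inhibition was corrected for non-specific binding defined with 10 μmol/L 8-OH-DPAT.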

With `COc1ccc2ccnc(N3CCNCC3)c2c1` [Production Example 34, 7-methoxy-1-piperazin-1-ylisoquinoline], in test [1], the “5-HT1A Receptor Agonistic Action on Rats, FBP” value is given as 2.8 and the “5-HT1A Receptor Agonistic Action on Rats, LLR” value came out at 3.0. The “BC Inhibition (%)” value in test [2] is on record as 92.0%.
Turning to `c1ccc2c(N3CCNCC3)nccc2c1` [Production Example 35, 1-piperazin-1-ylisoquinoline], the “BC Inhibition (%)” value in test [2] was found to be 94.6%.
Same read-out and setting: the value for `Cc1ccc2ccnc(N3CCNCC3)c2c1` [Production Example 46, 7-methyl-1-piperazin-1-ylisoquinoline] was 94.4%; that for `CN1CCN(c2nccc3ccc(Cl)cc23)CC1` [Production Example 50, 7-chloro-1-(4-methylpiperazin-1-yl)isoquinoline] was 86.8%; that for `Oc1ccc2ccnc(N3CCNCC3)c2c1` [Production Example 95, 7-hydroxy-1-piperazin-1-ylisoquinoline hydrochloride] was 96.0%.
Turning to `Brc1cc2c(N3CCN4CCC[C@H]4C3)nccc2s1` [Production Example 106, 2-bromo-4-((8aS)-octahydropyrrolo[1,2-a]pyrazin-2-yl)thieno[3,2-c]-pyridine], the inhibition (in general, the relative decrease from the control value, in per cent) at 0.1 µM is 98.3% in test [3] and 101% in test [4].
For `c1cc2sccc2c(N2CCN3CCC[C@@H]3C2)n1` [Production Example 109, 4-((8aR)-octahydropyrrolo[1,2-a]pyrazin-2-yl)thieno[3,2-c]pyridine] the same measures were 92.5% and 75.4%.
For `c1cc2ccoc2c(N2CCN3CCC[C@@H]3C2)n1` [Production Example 110, 7-((8aR)-octahydropyrrolo[1,2-a]pyrazin-2-yl)furo[2,3-c]pyridine] the same measures were 97.9% and 98.9%.
Consider `O[C@@H]1C[C@H]2CN(c3nccc4ccoc34)CCN2C1` [Production Example 111, 7-((7R,8aS)-7-hydroxyoctahydropyrrolo[1,2-a]pyrazin-2-yl)furo[2,3-c]-pyridine], for which the inhibition at 0.1 µM in test [3] is 95.5%; in test [4] it was 48%.
For `O[C@@H]1C[C@H]2CN(c3nccc4ccsc34)CCN2C1` [Production Example 112, 7-((7R,8aS)-7-hydroxyoctahydropyrrolo[1,2-a]pyrazin-2-yl)thieno-[2,3-c]pyridine] the same measures were 98.8% and 53.9%.
For `c1cc2occc2c(N2CCN3CCC[C@@H]3C2)n1` [Production Example 113, 4-((8aR)-octahydropyrrolo[1,2-a]pyrazin-2-yl)furo[3,2-c]pyridine] the same measures were 82.4% and 56.4%.
On the same counts, the results for `O[C@@H]1C[C@H]2CN(c3nccc4occc34)CCN2C1` [Production Example 114, 4-((7R,8aS)-7-hydroxyoctahydropyrrolo[1,2-a]pyrazin-2-yl)furo[3,2-c]-pyridine] are 91% and 16.7%.
As to `Cc1cc2c(N3CCN4CCC[C@@H]4C3)nccc2o1` [Production Example 115, 4-((8aR)-octahydropyrrolo[1,2-a]pyrazin-2-yl)-2-methylfuro[3,2-c]pyridine], the inhibition at 0.1 µM in test [3] was found to be 74.3%; in test [4] it was 82%.
For `c1ccc(CO[C@@H]2C[C@H]3CN(c4nccc5ccsc45)CCN3C2)cc1` [Production Example 116, 7-((7R,8aS)-7-benzyloxyoctahydropyrrolo[1,2-a]pyrazin-2-yl)thieno-[2,3-c]pyridine] the same measures were 25.6% and 70.6%.
Take `c1ccc(CO[C@@H]2C[C@H]3CN(c4nccc5sccc45)CCN3C2)cc1` [Production Example 117, 4-((7R,8aS)-7-benzyloxyoctahydropyrrolo[1,2-a]pyrazin-2-yl)thieno-[3,2-c]pyridine]: the inhibition at 0.1 µM is 10.6% in test [3] and 57.7% in test [4].
On the same counts, the results for `c1cc2ccoc2c(N2CCN3CCCCC3C2)n1` (centres unmarked) [Production Example 118, 7-octahydropyrido[1,2-a]pyrazin-2-ylfuro[2,3-c]pyridine] are 84.9% and 76%.
On the same counts, the results for `c1cc2occc2c(N2CCN3CCCCC3C2)n1` (centres unmarked) [Production Example 119, 4-octahydropyrido[1,2-a]pyrazin-2-ylfuro[3,2-c]pyridine] are 71.9% and 33.7%.
On the same counts, the results for `c1cc2ccsc2c(N2CCN3CCCCC3C2)n1` (centres unmarked) [Production Example 120, 7-octahydropyrido[1,2-a]pyrazin-2-ylthieno[2,3-c]pyridine] are 99.4% and 81%.
Take `c1cc2sccc2c(N2CCN3CCCCC3C2)n1` (centres unmarked) [Production Example 121, 4-octahydropyrido[1,2-a]pyrazin-2-ylthieno[3,2-c]pyridine]: the inhibition at 0.1 µM in test [3] came to 85.6%; in test [4] it was 69.3%.
